In patent US20220169629A1, “PESTICIDALLY ACTIVE DIAZINE-AMIDE COMPOUNDS” (SYNGENTA CROP PROTECTION AG, priority 2019, published 2022):

Tests used:
Format in all cases: in vivo
[1] = system: Plutella xylostella (diamond back moth); test: Example B5: Plutella xylostella (diamond back moth), artificial diet, 24-well, eggs; conditions: 192 h, application rate of 200 ppm, 8 days after infestation, read-out: control in at least one of the two categories (mortality or growth inhibition)
Protocol: Example B5: Plutella xylostella (Diamond Back Moth)
24-well microtiter plates with artificial diet were treated with aqueous test solutions prepared from 10′000 ppm DMSO stock solutions by pipetting. After drying, Plutella eggs were pipetted through a plastic stencil onto a gel blotting paper and the plate was closed with it. The samples were assessed for mortality and growth inhibition in comparison to untreated samples 8 days after infestation.

[2] = system: Spodoptera littoralis (Egyptian cotton leaf worm); test: Example B7: Spodoptera littoralis (Egyptian cotton leaf worm), sprayed cotton leaf discs, L1 larvae; conditions: foliar, 72 h, application rate of 200 ppm, 3 days after infestation, L1 larvae on cotton leaf discs, read-out: control in at least one of the three categories (mortality, anti-feeding or growth inhibition)
Protocol: Example B7: Spodoptera littoralis (Egyptian Cotton Leaf Worm)
Cotton leaf discs were placed onto agar in 24-well microtiter plates and sprayed with aqueous test solutions prepared from 10′000 ppm DMSO stock solutions. After drying the leaf discs were infested with five L1 larvae. The samples were assessed for mortality, anti-feeding effect, and growth inhibition in comparison to untreated samples 3 days after infestation. Control of Spodoptera littoralis by a test sample is given when at least one of the categories mortality, anti-feedant effect, and growth inhibition is higher than the untreated sample.

[3] = system: Chilo suppressalis (striped rice stemborer); test: Example B4: Chilo suppressalis (striped rice stemborer), artificial diet, L2 larvae; conditions: 144 h, application rate of 200 ppm, 6 days after infestation, L2 larvae on artificial diet, read-out: control in at least one of the three categories (mortality, anti-feeding or growth inhibition)
Protocol: Example B4: Chilo suppressalis (Striped rice stemborer)
24-well microtiter plates with artificial diet were treated with aqueous test solutions prepared from 10′000 ppm DMSO stock solutions by pipetting. After drying, the plates were infested with L2 larvae (6-8 per well). The samples were assessed for mortality, anti-feeding effect, and growth inhibition in comparison to untreated samples 6 days after infestation. Control of Chilo suppressalis by a test sample is given when at least one of the categories mortality, anti-feedant effect, and growth inhibition is higher than the untreated sample.

[4] = system: Plutella xylostella (diamondback moth); test: Example B10: Plutella xylostella (diamondback moth), 96-well artificial diet; conditions: 216 h, application rate of 500 ppm, 9 days after infestation, eggs/L1 larvae
Protocol: Example B10: Plutella xylostella (Diamondback Moth)
96-well microtiter plates containing artificial diet were treated with aqueous test solutions, prepared from 10′000 ppm DMSO stock solutions, by a liquid handling robot. After drying, eggs (˜30 per well) were infested onto a netted lid which was suspended above the diet. The eggs hatch and L1 larvae move down to the diet. The samples were assessed for mortality 9 days after infestation.

[5] = system: Diabrotica balteata (corn root worm); test: Example B1: Diabrotica balteata (corn root worm), sprayed maize sprouts, L2 larvae; conditions: 96 h, application rate of 200 ppm, 4 days after infestation, L2 larvae on maize sprouts, read-out: control in at least one of the two categories (mortality or growth inhibition)
Protocol: Example B1: Diabrotica Balteata (Corn Root Worm)
Maize sprouts placed onto an agar layer in 24-well microtiter plates were treated with aqueous test solutions prepared from 10′000 ppm DMSO stock solutions by spraying. After drying, the plates were infested with L2 larvae (6 to 10 per well). The samples were assessed for mortality and growth inhibition in comparison to untreated samples 4 days after infestation.

CC(NC(=O)c1cc(OCC(F)(F)F)cc(C(F)(F)F)c1)c1nccnc1-c1ncc(OC(F)F)cn1 (stereo not shown) [Compound P30, N-[1-[3-[5-(difluoromethoxy)pyrimidin-2-yl]pyrazin-2-yl]ethyl]-3-(2,2,2-trifluoroethoxy)-5-(trifluoromethyl)benzamide]
≥ 80%: percent control (mortality or growth inhibition) at 200 ppm [1] | percent control (mortality, anti-feeding or growth inhibition) at 200 ppm [2] | control at 200 ppm [3] | mortality at 500 ppm [4] | percent control (mortality or growth inhibition) at 200 ppm [5]

CC(NC(=O)c1cc(OC(F)F)cc(C(F)(F)F)c1)c1nccnc1-c1ccc(OCC(F)(F)F)cn1 (stereo not shown) [Compound P12, 3-(difluoromethoxy)-N-[1-[3-[5-(2,2,2-trifluoroethoxy)-2-pyridyl]pyrazin-2-yl]ethyl]-5-(trifluoromethyl)benzamide]
≥ 80%: percent control (mortality or growth inhibition) at 200 ppm [1] | percent control (mortality, anti-feeding or growth inhibition) at 200 ppm [2] | control at 200 ppm [3] | mortality at 500 ppm [4]

CC(NC(=O)c1cc(Br)cc(C(F)(F)F)c1)c1nccnc1-c1ccc(OCC(F)F)cn1 (stereo not shown) [Compound P19, 3-bromo-N-[1-[3-[5-(2,2-difluoroethoxy)-2-pyridyl]pyrazin-2-yl]ethyl]-5-(trifluoromethyl)benzamide]
≥ 80%: percent control (mortality or growth inhibition) at 200 ppm [1] | percent control (mortality, anti-feeding or growth inhibition) at 200 ppm [2] | control at 200 ppm [3] | mortality at 500 ppm [4] | percent control (mortality or growth inhibition) at 200 ppm [5]

CC(NC(=O)c1cc(OC(F)F)cc(C(F)(F)F)c1)c1nccnc1-c1ccc(OC(F)F)cn1 (stereo not shown) [Compound P4, 3-(difluoromethoxy)-N-[1-[3-[5-(difluoromethoxy)-2-pyridyl]pyrazin-2-yl]ethyl]-5-(trifluoromethyl)benzamide]
≥ 80%: percent control (mortality or growth inhibition) at 200 ppm [1] | percent control (mortality, anti-feeding or growth inhibition) at 200 ppm [2] | control at 200 ppm [3] | percent control (mortality or growth inhibition) at 200 ppm [5]

CC(NC(=O)c1cc(Cl)cc(C(F)(F)F)c1)c1nccnc1-c1ccc(OCC(F)(F)F)cn1 (stereo not shown) [Compound P21, 3-chloro-N-[1-[3-[5-(2,2,2-trifluoroethoxy)-2-pyridyl]pyrazin-2-yl]ethyl]-5-(trifluoromethyl)benzamide]
≥ 80%: percent control (mortality or growth inhibition) at 200 ppm [1] | percent control (mortality, anti-feeding or growth inhibition) at 200 ppm [2] | control at 200 ppm [3] | mortality at 500 ppm [4] | percent control (mortality or growth inhibition) at 200 ppm [5]

CC(NC(=O)c1cc(Br)cc(C(F)(F)F)c1)c1nccnc1-c1ncc(OCC(F)(F)F)cn1 (stereo not shown) [Compound P9, 3-bromo-N-[1-[3-[5-(2,2,2-trifluoroethoxy)pyrimidin-2-yl]pyrazin-2-yl]ethyl]-5-(trifluoromethyl)benzamide]
≥ 80%: percent control (mortality or growth inhibition) at 200 ppm [1] | percent control (mortality, anti-feeding or growth inhibition) at 200 ppm [2] | control at 200 ppm [3] | percent control (mortality or growth inhibition) at 200 ppm [5]

CC(NC(=O)c1cc(OCC(F)(F)F)cc(C(F)(F)F)c1)c1nccnc1-c1ccc(OCC(F)F)cn1 (stereo not shown) [Compound P15, N-[1-[3-[5-(2,2-difluoroethoxy)-2-pyridyl]pyrazin-2-yl]ethyl]-3-(2,2,2-trifluoroethoxy)-5-(trifluoromethyl)benzamide]
≥ 80%: percent control (mortality or growth inhibition) at 200 ppm [1] | percent control (mortality, anti-feeding or growth inhibition) at 200 ppm [2] | control at 200 ppm [3] | mortality at 500 ppm [4] | percent control (mortality or growth inhibition) at 200 ppm [5]

CC(NC(=O)c1cc(Br)cc(C(F)(F)F)c1)c1nccnc1-c1ccc(OCC(F)(F)F)cn1 (stereo not shown) [Compound P18, 3-bromo-N-[1-[3-[5-(2,2,2-trifluoroethoxy)-2-pyridyl]pyrazin-2-yl]ethyl]-5-(trifluoromethyl)benzamide]
≥ 80%: percent control (mortality or growth inhibition) at 200 ppm [1] | percent control (mortality, anti-feeding or growth inhibition) at 200 ppm [2] | control at 200 ppm [3] | mortality at 500 ppm [4]

CC(NC(=O)c1cc(Cl)cc(C(F)(F)F)c1)c1nccnc1-c1ccc(OCC(F)F)cn1 (stereo not shown) [Compound P20, 3-chloro-N-[1-[3-[5-(2,2-difluoroethoxy)-2-pyridyl]pyrazin-2-yl]ethyl]-5-(trifluoromethyl)benzamide]
≥ 80%: percent control (mortality or growth inhibition) at 200 ppm [1] | percent control (mortality, anti-feeding or growth inhibition) at 200 ppm [2] | control at 200 ppm [3] | mortality at 500 ppm [4]

CC(NC(=O)c1cc(OC(F)F)cc(C(F)(F)F)c1)c1nccnc1-c1ccc(OCC(F)F)cn1 (stereo not shown) [Compound P13, N-[1-[3-[5-(2,2-difluoroethoxy)-2-pyridyl]pyrazin-2-yl]ethyl]-3-(difluoromethoxy)-5-(trifluoromethyl)benzamide]
≥ 80%: percent control (mortality or growth inhibition) at 200 ppm [1] | percent control (mortality, anti-feeding or growth inhibition) at 200 ppm [2] | control at 200 ppm [3] | mortality at 500 ppm [4] | percent control (mortality or growth inhibition) at 200 ppm [5]

CC(NC(=O)c1cc(SC(F)(F)F)cc(C(F)(F)F)c1)c1nccnc1-c1ncc(OCC(F)F)cn1 (stereo not shown) [Compound P29, N-[1-[3-[5-(2,2-difluoroethoxy)pyrimidin-2-yl]pyrazin-2-yl]ethyl]-3-(trifluoromethyl)-5-(trifluoromethylsulfanyl)benzamide]
≥ 80%: percent control (mortality or growth inhibition) at 200 ppm [1] | percent control (mortality, anti-feeding or growth inhibition) at 200 ppm [2] | control at 200 ppm [3] | mortality at 500 ppm [4] | percent control (mortality or growth inhibition) at 200 ppm [5]

CC(NC(=O)c1cc(OCC(F)F)cc(C(F)(F)F)c1)c1nccnc1-c1ccc(OCC(F)(F)F)cn1 (stereo not shown) [Compound P17, 3-(2,2-difluoroethoxy)-N-[1-[3-[5-(2,2,2-trifluoroethoxy)-2-pyridyl]pyrazin-2-yl]ethyl]-5-(trifluoromethyl)benzamide]
≥ 80%: percent control (mortality or growth inhibition) at 200 ppm [1] | percent control (mortality, anti-feeding or growth inhibition) at 200 ppm [2] | mortality at 500 ppm [4]

CC(NC(=O)c1cc(Br)cc(C(F)(F)F)c1)c1nccnc1-c1ccc(OC(F)F)cn1 (stereo not shown) [Compound P11, 3-bromo-N-[1-[3-[5-(difluoromethoxy)-2-pyridyl]pyrazin-2-yl]ethyl]-5-(trifluoromethyl)benzamide]
≥ 80%: percent control (mortality or growth inhibition) at 200 ppm [1] | percent control (mortality, anti-feeding or growth inhibition) at 200 ppm [2] | control at 200 ppm [3] | percent control (mortality or growth inhibition) at 200 ppm [5]

CC(NC(=O)c1cc(C(F)(F)F)cc(C(F)(F)F)c1)c1nccnc1-c1ccc(C#N)cn1 (stereo not shown) [Compound P31, N-[1-[3-(5-cyano-2-pyridyl)pyrazin-2-yl]ethyl]-3,5-bis(trifluoromethyl)benzamide]
≥ 80%: percent control (mortality or growth inhibition) at 200 ppm [1] | percent control (mortality, anti-feeding or growth inhibition) at 200 ppm [2] | control at 200 ppm [3] | mortality at 500 ppm [4]

CC(NC(=O)c1cc(OCC(F)(F)F)cc(C(F)(F)F)c1)c1nccnc1-c1ccc(OCC(F)(F)F)cn1 (stereo not shown) [Compound P14, 3-(2,2,2-trifluoroethoxy)-N-[1-[3-[5-(2,2,2-trifluoroethoxy)-2-pyridyl]pyrazin-2-yl]ethyl]-5-(trifluoromethyl)benzamide]
≥ 80%: percent control (mortality or growth inhibition) at 200 ppm [1] | control at 200 ppm [3] | mortality at 500 ppm [4]
